We go through 26 compounds from PubChem BioAssay (NCI).

Molecules are shown by their SMILES.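 Following 48 hours of exposure in 96-well plates, responses at five concentrations were used to interpolate endpoints linearly. Abbreviation: GI50, concentration required for 50% inhibition of growth. TGI is the concentration that stops growth completely.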 Bounds are passed on as bounds.

What all share (assay): NCI-60 cell line screen, 48 h
Test [1] has as its system K-562 leukemia.
Test [2] relates to SK-OV-3 ovarian.
Test [3] has as its system OVCAR-4 ovarian.
Test [4] has as its system U251 CNS.
Test [5] deals with OVCAR-8 ovarian.
For test [6], the system named is KM12 colon.
The test system of test [7] is HL-60(TB) leukemia.
For test [8], the system named is SK-MEL-2 melanoma.
Test [9] concerns MOLT-4 leukemia.
The test system of test [10] is SR leukemia.

As for `Cc1cc(-c2nc3cc(F)c(F)cc3s2)ccc1N`, the TGI in test [1], in test [2], in test [3], in [4], in [5] and in test [6] was > 100 µM throughout. Besides, the TGI in [7], in test [8], in [9] and in test [10] was > 100 µM throughout.

As to `O=C(Nc1c(Cl)cc([N+](=O)[O-])cc1Cl)/C(=N\Nc1cccc(Cl)c1)c1c(O)c2ccccc2oc1=O`, the TGI in test [1], in test [2], in [3], in [5], in test [6] and in [7] was > 100 µM in each case. For the same compound, the TGI in test [8], in test [9] and in test [10] was > 100 µM throughout.

Turning to `CC1Cc2cc(O)ccc2C2[C@@H]1C1CC[C@H](O)[C@@]1(C)C[C@@H]2O[N+](=O)[O-]` (some centres not stated), the TGI in [1] was 49.4 µM; in test [2], > 100 µM; in test [3], > 100 µM; in test [4], 23 µM; in [5] it was 74 µM; in test [6], > 79.1 µM. For the same compound, the TGI is 8.3 µM in test [7], 55.3 µM in [8], > 100 µM in test [9] and > 56.8 µM in test [10].

Take `CCOC(=O)/C=C/c1ccccn1`: the TGI in [1], in test [2], in [3], in test [4], in test [5] and in [6] was > 100 µM in each case. Besides, the TGI in test [7], in [8], in test [9] and in test [10] was > 100 µM each time.

`CCOC1SC(SC)=NN1C(=O)C(OC(C)=O)C(OC(C)=O)C(OC(C)=O)C(OC(C)=O)C(=O)N1N=C(SC)SC1OCC` (configuration not stated): the TGI in test [1], in [2], in [3], in test [4], in test [5] and in [6] was > 100 µM each time. Besides, the TGI in test [7], in test [8], in [9] and in test [10] was > 100 µM in each case.

Turning to `CC1(C)OC(=S)N(c2ccccc2)C12C=Cc1cc3ccccc3cc1O2` (configuration not stated), the TGI in test [1], in test [2], in test [3], in [4], in test [5] and in test [6] was > 100 µM in each case. The TGI in test [7], in [8], in [9] and in test [10] was > 100 µM in each case.

In the case of `CCOP(C)(=O)C(Nc1ccc(F)cc1)c1ccc(F)cc1` (configuration not stated), the TGI in [1], in [2], in test [3], in test [4], in test [5] and in [6] was > 100 µM in each case. Further, the TGI in test [7], in test [8], in test [9] and in test [10] was > 100 µM in each case.

Consider `Cc1ccc(C)c(NC(=O)C(Cc2c[nH]c3ccccc23)NC(=O)OCc2ccccc2)c1` (configuration not stated), for which the TGI in test [1] is 28.9 µM; in [2] it was 50.1 µM; in test [3] it was 25 µM; in test [4] it was 35.1 µM; in test [5], > 100 µM; in test [6] it was 69.7 µM. The TGI in test [7] was found to be 15.4 µM; in [8], 45.9 µM; in [9], 19.6 µM; in [10], 48.2 µM.

As for `N/N=C(\C(=O)Nc1ccc([N+](=O)[O-])cc1)C(C1=Nc2cc([N+](=O)[O-])ccc2NC1)[N+](=O)[O-]` (configuration not stated), the TGI in test [1], in test [2], in test [3], in test [4], in test [5] and in [6] was > 100 µM throughout. Besides, the TGI in [7], in [8], in test [9] and in test [10] was > 100 µM in each case.

With `O=C(O)C(F)(OC(F)(F)C(F)(OC(F)(F)C(F)(F)C(F)(F)F)C(F)(F)F)C(F)(F)F` (configuration not stated), the TGI in test [1], in test [2], in test [3], in test [4], in [5] and in test [6] was > 100 µM in each case. Moreover, the TGI in test [7], in test [8], in test [9] and in test [10] was > 100 µM each time.

For `Cc1cccc(NC(=S)N/N=C(/c2ccccc2)c2ccccn2)c1`, the TGI in test [1] came to 2.84 µM; in test [2], 14.1 µM; in [3] it was 17.2 µM; in test [4], 12.5 µM; in test [5] it was 15.4 µM; in [6], 13.8 µM. Also, the TGI in [7] is 1.53 µM; in test [8], 14.5 µM; in [9], > 6.59 µM; in test [10], 7.13 µM.

As to `O=C(/C(=C/c1cccs1)c1ccccc1)c1ccccc1`, the TGI in [1], in [2], in test [3], in test [4], in [5] and in [6] was > 100 µM throughout. Also, the TGI in [7], in [8], in test [9] and in [10] was > 100 µM each time.

Regarding `O=C1O[C@H]2[C@@H]3OC(=O)c4cc(O)c(O)c(O)c4-c4c(cc(O)c(O)c4O)C(=O)OC[C@H]2O[C@@H](OC(=O)c2cc(O)c(O)c(O)c2)[C@@H]3OC(=O)c2cc(O)c(O)c3c2[C@@H]2C1=CC(=O)C(O)(O)C2(O)O3` (some centres not stated), the TGI is 94.5 µM in [1]; > 100 µM in test [2]; 39.4 µM in test [3]; 33.5 µM in [4]; 40.5 µM in test [5]; 80.1 µM in test [6]. The TGI in [7] is > 100 µM; in test [8] it was > 100 µM; in test [9], 92 µM; in test [10] it was > 100 µM.

Regarding `CCOC(=O)c1cc(-c2ccc(Cl)cc2)c([N+](=O)[O-])n1C`, the TGI in test [1], in test [2], in [3], in [4], in test [5] and in [6] was > 10 µM in each case. Also, the TGI in [7], in [8], in test [9] and in [10] was > 10 µM throughout.

In the case of `COC(=O)C(Cc1nc2ccccc2[nH]c1=O)C(=O)C(=O)Nc1ccc(OC)cc1[N+](=O)[O-]` (configuration not stated), the TGI in test [1], in test [2], in [3], in test [4], in test [5] and in test [6] was > 100 µM throughout. Also, the TGI in [7], in [8], in test [9] and in test [10] was > 100 µM in each case.

Consider `O=C(CSc1nnc(-c2ccc(N=Cc3ccc(Cl)cc3)cc2)o1)Nc1cccc(Cl)c1`, for which the TGI in [1], in test [2], in test [3], in [4], in test [5] and in [6] was > 100 µM throughout. For the same compound, the TGI in test [7], in test [8], in [9] and in test [10] was > 100 µM in each case.

On to `CC(=O)O[C@H]1[C@@H](N2CCN(C)CC2)C[C@H]2[C@@H]3CC=C4C[C@@H](N5CCCC5)CC[C@]4(C)[C@H]3CC[C@@]21C`, for which the TGI was 33 µM in test [1]; > 100 µM in test [2]; > 100 µM in [3]; > 100 µM in [4]; > 100 µM in test [5]; > 100 µM in test [6]. Also, the TGI in test [7] was 30.1 µM; in test [8], > 100 µM; in [9], > 100 µM; in test [10], 5.52 µM.

`[N-]=[N+]=NC1=C(c2ccccc2)C(=O)c2cccc3cccc1c23`: the TGI in test [1], in test [2], in [3], in [4], in test [6] and in test [7] was > 100 µM each time. For the same compound, the TGI in [8] was > 100 µM; in test [9], 21.1 µM; in test [10] it was > 100 µM.

For `CC1(C)O[C@@H]2[C@@H]3OC(=O)C[C@@H]3[C@@H](COCc3ccccc3)[C@@H]2O1`, the TGI in test [1], in test [2], in test [3], in test [4], in [5] and in [6] was > 100 µM in each case. In addition, the TGI in [7], in test [8], in test [9] and in test [10] was > 100 µM throughout.

As for `COC(=O)CCC(=O)c1ccc2c(c1)CC1(C2)Cc2ccc3c(c2C1)CCCC3=O` (configuration not stated), the TGI in test [1] is 9.44 µM; in test [2], > 100 µM; in test [3] it was > 74 µM; in test [4] it was > 100 µM; in [5], > 100 µM; in test [6] it was > 85 µM. Moreover, the TGI in [7] is 13.4 µM; in test [8], 36.9 µM; in test [9], 18.2 µM; in test [10], 8.05 µM.

In the case of `O=C(O)c1cc(Sc2ccc([N+](=O)[O-])c(C(=O)O)c2)ccc1[N+](=O)[O-]`, the TGI in test [1], in test [2], in test [3], in test [4], in test [5] and in test [6] was > 100 µM in each case. The TGI in [7], in [8], in test [9] and in test [10] was > 100 µM throughout. The GI50 in test [10] is > 100 µM.

Consider `Cc1cc(NCCCCCCNc2cc(C)nc3ccc(Cl)cc23)c2cc(Cl)ccc2n1`, for which the TGI in [1] was 18.4 µM; in test [2] it was > 100 µM; in [3] it was 34.8 µM; in [4], 30.6 µM; in [5], 39.1 µM; in [6], 30.9 µM. Besides, the TGI in test [7] was 47.8 µM; in test [8], 46 µM; in test [9], > 100 µM; in test [10], > 100 µM.

`C/C(=N\Nc1nc2ccccc2o1)c1ccncn1`: the TGI was > 100 µM in [1]; 17.4 µM in test [2]; > 100 µM in test [3]; > 36.4 µM in test [4]; 35.7 µM in test [5]; 11.6 µM in test [6]. Further, the TGI in test [7] was 0.0585 µM; in [8] it was > 25.8 µM; in test [9], > 100 µM; in test [10], > 100 µM.

Consider `COC(Cc1ccccc1)NC(C)=O` (configuration not stated), for which the TGI in [1], in [2], in [3], in test [4], in test [5] and in test [6] was > 100 µM throughout. Further, the TGI in test [7], in test [8], in test [9] and in [10] was > 100 µM each time.

Take `CC(=O)OC1COC(Nn2c(=O)[nH]c3ccccc3c2=O)C(OC(C)=O)C1OC(C)=O` (configuration not stated): the TGI in [1], in test [2], in [4], in test [5], in test [6] and in [7] was > 100 µM each time. Moreover, the TGI in [8], in [9] and in [10] was > 100 µM in each case.

For the compound `N=c1oc2c(Cl)cc(Cl)cc2cc1C(=O)Nc1ccccn1`, the TGI in test [1], in test [2], in [3], in test [4], in test [6] and in [7] was > 100 µM each time. The TGI in test [8] is > 100 µM; in test [9], > 100 µM; in test [10] it was 65.9 µM.
